These results are taken from patent US20050163849A1 (priority 2003, published 2005).

The nature of this data set: Intracolonic ligated model, lower G.I. absorption and bioavailability of iron-transport moiety complexes. The following applies: rat, intracolonic bolus into ligated colon, 10 mg iron/rat.

Experimental: Absorption of the complexes is evaluated from blood samples taken from the animal as a function of time after intubation. A rise in the hematocrit level in the blood is indicative of absorption.
A segment of proximal colon is isolated and the colon is flushed of fecal materials. […] The colonic contents are flushed out and the colon is returned to the abdomen of the animal.
At the end of the 4 hour test period, the rats are euthanized with an overdose of pentobarbital. Colonic segments from each rat are excised and opened longitudinally along the anti-mesenteric border. Each segment is observed macroscopically for irritation and any abnormality noted. The excised colons are placed on graph paper and measured to approximate colonic surface area.

Consider “ferrous laurate [ferrous-laurate complex]”, for which the “Increased absorption relative to ferrous sulfate (change in hematocrit level)” value was “at least two-fold”.
